Assays:
Format in all cases: physicochemical
[1] = leaching of cypress blocks, bilirubin oxidase (Example 6); settings: for Elution Rate (%) LSA: pH 8.1-8.8; for Elution Rate (%) Chemical Agent: pH 8.1-8.8, species as bracketed (Copper, Zinc, Nickel, Boron, H = hinokitiol), else the agent named
Source text: Taking the amounts of the lignosulfonic acid (LSA) and chemical agent as injected upon the impregnation treatment as 100%, respectively, the amounts of the substances which were eluted were compared.

[2] = leaching of Japan cedar blocks treated with LSA and chemical agents (Example 4); settings: 5% LSA; for Elution Rate (%) Chemical Agent: species measured as bracketed (Copper, Zinc, Nickel, Boron, H = hinokitiol), else the agent named
Description: For chemical agents having low solubilities, they were added to aqueous lignosulfonic acid solution after it was warmed to 60 to 90° C., and it was cooled at 25° C. after the chemical agents were suspended, dispersed, dissolved by Vortex-Mixer, […]
The amount of lignosulfonic acid which leached off was determined by measurement of the absorbance at 280 nm, and the amount of the chemical agent which leached off was determined by complex formation and spectrophotometry using PAN (1-(2-pyridylazo)-2-naphthol, Aldrich Chemical Company) or quinalizarin (Wako Pure Chemicals), separation, identification and determination, using HPLC or gas chromatography, or atomic absorption analysis were performed, followed by calculation of the amount of the chemical agents which was eluted. When the chemical agents had absorption at 280 nm, the concentration of lignosulfonic acid was calculated by measuring the absorbance at 280 nm of the chemical agents of which the concentration was measured by the above-described method and subtracting an influence by the chemical agent from the absorbance at 280 nm of the liquid which was eluted. The amounts of the chemical agents and lignosulfonic acid which were eluted were calculated and compared taking the amounts of them injected upon the impregnation treatment as 100%.

[3] = leaching of cypress blocks, peroxidase + alcohol oxidase (Example 7); settings: 5 U/ml peroxidase + 5 U/ml alcohol oxidase + 1% methanol
Source text: The peroxidase used was obtained from horse radish (Type II, Sigma) and the alcohol oxidase used was obtained from Candida boidini (Boehringer Mannheim Biochemica).

[4] = leaching of Japan cedar blocks, treating mixture with tung oil (Example 8); settings: Example 1 enzyme, 5% LSA, 2,000 ppm tung oil; for Elution Rate (%) LSA: pH 8.1-8.5; for Elution Rate (%) Chemical Agent: pH 8.1-8.5, species as bracketed (Copper, Zinc, Nickel, H = hinokitiol), else the agent named
Description: The amounts of the chemical agents and lignosulfonic acid which were eluted were calculated and compared taking the amounts of them injected upon the impregnation treatment as 100%.

[5] = leaching of Japan cedar blocks, powdery treatment agent stored 2 weeks (Example 21); settings: 5 g in 100 ml; for Elution Rate (%) LSA: powdery agent (10 mg enzyme + 10 g LSA + agent) stored 2 weeks, Japan cedar; for Elution Rate (%) Chemical Agent: powdery agent stored 2 weeks, species as bracketed (Copper, Zinc, Nickel, Boron, H = hinokitiol), else the agent named
Description: 10 mg of the freeze-dried product described in Example 1, 10 g of commercially available lignosulfonic acid (LSA) powder, and various chemical agents were mixed well in a mortar to obtain a treatment agent for treating a porous article. If desired, a small amount of sodium carbonate powder was added to the resulting powder and mixed well, so that when a 5% aqueous solution was prepared from the above-described powder the solution could have a pH of 8.0 to 9.0. Then, after the powdery treatment agent was left to stand at room temperature for 2 weeks, 5 g of the powder was dissolved in 100 ml of deionized water to prepare a solution for treating a porous article. Using this solution, Japan cedar wood blocks were subjected to reduced pressure impregnation, drying/macromolecularization reaction, and leaching in the same manner as in Examples 3 and 4. Taking the amounts of lignosulfonic acid and chemical agents injected upon the impregnation treatment as 100%, respectively, the amounts of them which was eluted were compared. The results are shown in Table 12, from which it can be seen that the powdery treatment agent enables effective treatment of porous articles.

[6] = leaching of Japan cedar blocks, liquid treatment agent stored 2 weeks (Example 21); settings: diluted 10-fold; for Elution Rate (%) LSA: liquid agent (6 g powder in 12 ml) stored airtight 2 weeks, Japan cedar; for Elution Rate (%) Chemical Agent: liquid agent stored airtight 2 weeks, species as bracketed (Copper, Zinc, Nickel, Boron, H = hinokitiol), else the agent named
Description: Further, 6 g of the powdery treatment agent obtained in the same manner as described above was dissolved in 12 ml of deionized water to obtain a liquid treatment agent for a porous article. The liquid treatment agent was transferred into a 20 ml screw capped test tube. After the test tube stand airtightly at room temperature for 2 weeks, the liquid treatment agent was diluted 10-fold with deionized water to prepare a solution for treating a porous article. Japan cedar wood blocks were subjected to reduced pressure impregnation treatment with the solution thus obtained, drying/macromolecularization reaction, and elution treatment in the same manner as in Examples 3 and 4. The amounts of the lignosulfonic acid which were eluted were calculated and compared taking the amounts of it injected upon the impregnation treatment as 100%.

[7] = in the absence of enzyme (comparison), pH 8.1-8.8
[8] = in the presence of enzyme, Japan cedar, pH of treating agent 8.1-8.8
[9] = in the presence of enzyme, pH 8.1-8.8

Elution Rate (%) LSA [1] [%]	Elution Rate (%) Chemical Agent [1] [%]	Elution Rate (%) LSA [2, 7] [%]	Elution Rate (%) Chemical Agent [2, 7] [%]	Elution Rate (%) LSA [2, 8] [%]	Elution Rate (%) Chemical Agent [2, 9] [%]	Elution Rate (%) LSA ([3]; pH 8.1-8.8) [%]	Elution Rate (%) Chemical Agent ([3]; pH 8.1-8.8, species as bracketed (Copper, Zinc, Boron, H = hinokitiol), else the agent named) [%]	Elution Rate (%) LSA [4] [%]	Elution Rate (%) Chemical Agent [4] [%]	Elution Rate (%) LSA [5] [%]	Elution Rate (%) Chemical Agent [5] [%]	Elution Rate (%) LSA [6] [%]	Elution Rate (%) Chemical Agent [6] [%]	Compound
3.7	26.2	22.1	32.3	0.7	25.1	5.6	27.5	–	–	–	–	–	–	OB(O)O [1% Boric acid, Boric acid]
7.9	6.0	23.4	7.1	2.5	1.8	–	–	–	–	–	–	–	–	CC(C)=CCCC(C)=CC=O [100 ppm citral, citral]
2.9	0.8	25.4	6.8	0.7	0.4	–	–	1.7	0.2	–	–	–	–	CC(C)=CCCC(C)CCO (stereo not drawn) [100 ppm β-citronellol, β-citronellol]
1.0	1.2	22.8	7.3	0.6	0.3	–	–	0.7	0.2	–	–	–	–	CC1=CC[C@@H]2C[C@H]1C2(C)C [500 ppm (1R)-(+)-α-pinene, (1R)-(+)-α-pinene]
2.8	1.3	27.4	7.5	0.5	0.2	–	–	0.6	0.4	–	–	–	–	CC1CCC(C(C)C)C(O)C1 [500 ppm (1R,2S,5R)-(−)-menthol, (1R,2S,5R)-(−)-menthol]
0.8	0.6	25.7	6.2	0.5	0.2	–	–	0.5	0.2	–	–	–	–	CC12CCC(CC1)C(C)(C)O2 [500 ppm cineole, cineole]
1.1	1.4	24.5	9.1	0.7	0.6	–	–	0.6	0.3	–	–	–	–	CC1=CCC(C(C)(C)O)CC1 (stereo not drawn) [500 ppm α-terpineol, α-terpineol]
–	–	–	–	–	–	–	–	–	–	0.6	18.1	0.6	–	OB(O)O [Boric acid (2 g), Boric acid]
–	–	–	–	–	–	–	–	–	–	0.6	3.0	0.4	2.5	CC(C)c1cccc(=O)c(O)c1 [Hinokitiol (0.2 g), Hinokitiol]
–	–	–	–	–	–	–	–	–	–	3.6	4.2	3.7	4.6	O=C(OC[C@H]1O[C@@H](OC(=O)c2cc(O)c(O)c(OC(=O)c3cc(O)c(O)c(O)c3)c2)[C@H](OC(=O)c2cc(O)c(O)c(OC(=O)c3cc(O)c(O)c(O)c3)c2)[C@@H](OC(=O)c2cc(O)c(O)c(OC(=O)c3cc(O)c(O)c(O)c3)c2)[C@@H]1OC(=O)c1cc(O)c(O)c(OC(=O)c2cc(O)c(O)c(O)c2)c1)c1cc(O)c(O)c(OC(=O)c2cc(O)c(O)c(O)c2)c1 [Tannic acid (0.1 g), Tannic acid]
–	–	–	–	–	–	–	–	–	–	2.9	3.2	2.0	3.4	(+)-Catechin.H2O [(+)-Catechin.H2O (0.2 g)]

Compound	Elution Rate (%) LSA [1] [%]	Elution Rate (%) Chemical Agent [1] [%]	Elution Rate (%) LSA [2, 7] [%]	Elution Rate (%) Chemical Agent [2, 7] [%]	Elution Rate (%) LSA [2, 8] [%]	Elution Rate (%) Chemical Agent [2, 9] [%]	Elution Rate (%) LSA ([3]; pH 8.1-8.8) [%]	Elution Rate (%) Chemical Agent ([3]; pH 8.1-8.8, species as bracketed (Copper, Zinc, Boron, H = hinokitiol), else the agent named) [%]	Elution Rate (%) LSA [4] [%]	Elution Rate (%) Chemical Agent [4] [%]	Elution Rate (%) LSA [5] [%]	Elution Rate (%) Chemical Agent [5] [%]	Elution Rate (%) LSA [6] [%]	Elution Rate (%) Chemical Agent [6] [%]
Cc1cc2cccc(C)c2cc1C [10 ppm 2,3,5-Trimethylnaphthalene, 2,3,5-Trimethylnaphthalene]	2.4	0.3	23.3	5.6	0.8	0.1	–	–	–	–	–	–	–	–
C=CCN=C=S [100 ppm Allyl isothiocyanate, Allyl isothiocyanate]	8.5	7.8	26.3	7.5	3.5	2.2	–	–	2.1	1.3	–	–	–	–
O=CC=Cc1ccccc1 [100 ppm Cinnamaldehyde, Cinnamaldehyde]	5.4	2.1	22.1	8.5	1.5	0.7	–	–	1.9	0.2	–	–	–	–
Nc1ccccc1N [200 ppm o-Phenylenediamine, o-Phenylenediamine]	2.5	0.6	16.5	5.3	1.0	0.2	–	–	–	–	–	–	–	–
Nc1ccccc1N [o-Phenylenediamine (0.04 g), o-Phenylenediamine]	–	–	–	–	–	–	–	–	–	–	1.5	0.4	2.1	0.8

Source: patent US20030017565A1, “COMPOSITION AND METHOD FOR TREATING A POROUS ARTICLE AND USE THEREOF” (priority 1996, published 2003)
